Molecular target: T1, amyloid β-protein 42 (Aβ42) (Homo sapiens, UniProt P05067)
T1 construct: gene APP
Experiment: ThT fluorescence fibrillation assay of synthetic Aβ[…]); supported by DSC Tm shifts, CD and AFM
Type: biochemical

T1 sequence (P05067 672-713): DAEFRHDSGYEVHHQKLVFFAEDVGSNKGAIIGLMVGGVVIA

For `COC(=O)[C@]1(C)C(OC2OC(CO)C(O)C(O)C2O)[C@@H](O)C[C@@]2(C)C1CC[C@]1(C)C2CC=C2[C@@H]3CC(C)(C)CCC3(C(=O)O)CC[C@]21C` (stereo partly shown) [DA, doliroside A], the IC50 was 26.6 ± 1.6 µM.
